Values quoted from earlier work, collected in patent US6030942A, “Peptides peptide analogs peptidomimetics and other small molecules useful for inhibiting the activity of ribonucleotide reductase” (The Trustees of the University of Pennsylvania, priority 1998, dated 2000).
Square brackets hold non-standard residues; d marks the D form. Peptide text beside a SMILES is read from it. * marks the point of attachment. Asp(3,3-(CH2)4) = N[C@H](C(=O)O)C1(C(=O)O)CCCC1; Dibenzylacetyl = O=C(C(Cc1ccccc1)Cc1ccccc1)*; Leu(γ-Me)ol = CC(C)(C)C[C@@H](CO)N*; Tle = CC(C)(C)[C@H](N)C(=O)O; NMeV = CN[C@H](C(=O)O)C(C)C; Pyrrolidide = C1CCN(*)C1

Tests used:
HSV-1 = details: murine ocular model; cited from earlier work
HSV type 1 = details: cited from earlier work
HSV type 2 = details: cell culture; read-out: EC50, replication of HSV type 2; cited from earlier work
HSV = details: cited from earlier work

Row | Molecule | Severity of HSV-1-induced keratitis (HSV-1) | Combination with acyclovir in cell culture (HSV type 1; HSV types 1 and 2) | EC50 (HSV type 1; cell culture, read-out: EC50, replication of HSV type 1) [nM] | EC50 (HSV type 2) [µM] | Inhibition of viral growth in cell culture (HSV)
1 | CC(C)[C@@H](C(=O)N[C@H](C(=O)N[C@@H](CC(=O)N1CCCC1)C(=O)N[C@H](C(=O)N[C@H](CO)CC(C)(C)C)C1(C(=O)O)CCCC1)C(C)(C)C)N(C)C(=O)C(Cc1ccccc1)Cc1ccccc1 [BI-LD-1263] (Dibenzylacetyl-[NMeV][Tle]D(Pyrrolidide)[Asp(3,3-(CH2)4)]-{Leu(γ-Me)ol}) | reduces the severity | synergistic effect | 3000 | 4 | –
2 | YAGAVVNDL | – | – | – | – | did not inhibit viral growth in cell culture
